Measured values taken from PMC5622171 (Nature Communications, 2017).

Tests used:
Experiment in all cases: KINOMEscan kinase profiling
Format in all cases: binding
ULK1 = molecular target: T1, ULK1 (Homo sapiens, UniProt O75385)
T1 construct: purchased DiscoverX (Ambit Biosciences) KINOMEscan
In short: (§1)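 KINOMEscan profiling followed a published protocol. Kinases whose inhibition exceeded a set cut-off were then tested in a dilution series beginning at 30 µM.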

RIPK5 = molecular target: T2, RIPK5 (Homo sapiens, UniProt Q6XUX3); settings: read-out: %Inhibition by 10 μM SPA70
T2 construct: purchased DiscoverX (Ambit Biosciences) KINOMEscan
In short: as §1

EPHA7 = molecular target: T3, EPHA7 (Homo sapiens, UniProt Q15375); settings: read-out: %Inhibition by 10 μM SPA70
T3 construct: purchased DiscoverX (Ambit Biosciences) KINOMEscan
In short: as §1

YES = molecular target: T4, YES (Homo sapiens, UniProt P07947); settings: read-out: %Inhibition by 10 μM SPA70
T4 construct: purchased DiscoverX (Ambit Biosciences) KINOMEscan
In short: as §1

YANK1 = molecular target: T5, YANK1 (Homo sapiens, UniProt Q8WU08); settings: read-out: %Inhibition by 10 μM SPA70
T5 construct: purchased DiscoverX (Ambit Biosciences) KINOMEscan
T5 sequence (Q8WU08 whole entry): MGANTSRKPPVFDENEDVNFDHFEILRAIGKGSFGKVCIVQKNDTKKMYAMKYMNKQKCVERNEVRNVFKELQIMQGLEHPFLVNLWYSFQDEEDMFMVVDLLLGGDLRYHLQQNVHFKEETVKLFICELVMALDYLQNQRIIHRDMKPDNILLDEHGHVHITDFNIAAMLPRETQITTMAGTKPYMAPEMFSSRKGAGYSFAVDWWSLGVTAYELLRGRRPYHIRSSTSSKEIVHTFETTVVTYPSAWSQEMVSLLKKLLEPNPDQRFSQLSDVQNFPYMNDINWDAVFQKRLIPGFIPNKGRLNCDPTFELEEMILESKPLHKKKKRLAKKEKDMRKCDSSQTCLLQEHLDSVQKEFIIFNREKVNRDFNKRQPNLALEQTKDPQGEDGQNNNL
In short: as §1

CSNK1A1L = molecular target: T6, CSNK1A1L (Homo sapiens, UniProt Q8N752); settings: read-out: %Inhibition by 10 μM SPA70
T6 construct: purchased DiscoverX (Ambit Biosciences) KINOMEscan
T6 sequence (Q8N752 whole entry): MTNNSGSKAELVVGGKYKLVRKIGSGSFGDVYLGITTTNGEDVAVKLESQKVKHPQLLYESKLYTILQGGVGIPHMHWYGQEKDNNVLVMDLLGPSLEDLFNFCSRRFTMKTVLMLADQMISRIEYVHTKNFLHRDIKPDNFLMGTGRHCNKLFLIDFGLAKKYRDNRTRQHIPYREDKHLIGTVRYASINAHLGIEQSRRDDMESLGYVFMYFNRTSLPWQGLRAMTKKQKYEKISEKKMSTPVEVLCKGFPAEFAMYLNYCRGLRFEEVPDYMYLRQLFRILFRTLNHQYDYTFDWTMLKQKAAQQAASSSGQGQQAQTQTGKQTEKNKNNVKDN
In short: as §1

EPHA3 = molecular target: T7, EPHA3 (Homo sapiens, UniProt P29320); settings: read-out: %Inhibition by 10 μM SPA70
T7 construct: purchased DiscoverX (Ambit Biosciences) KINOMEscan
In short: as §1

ROCK1 = molecular target: T8, ROCK1 (Homo sapiens, UniProt Q13464); settings: read-out: %Inhibition by 10 μM SPA70
T8 construct: purchased DiscoverX (Ambit Biosciences) KINOMEscan
In short: as §1

NDR2 = molecular target: T9, NDR2 (Homo sapiens, UniProt Q9Y2H1); settings: read-out: %Inhibition by 10 μM SPA70
T9 construct: purchased DiscoverX (Ambit Biosciences) KINOMEscan
In short: as §1

PYK2 = molecular target: T10, PYK2 (Homo sapiens, UniProt Q14289); settings: read-out: %Inhibition by 10 μM SPA70
T10 construct: purchased DiscoverX (Ambit Biosciences) KINOMEscan
In short: as §1

PAK4 = molecular target: T11, PAK4 (Homo sapiens, UniProt O96013); settings: read-out: %Inhibition by 10 μM SPA70
T11 construct: purchased DiscoverX (Ambit Biosciences) KINOMEscan
In short: as §1

TLK2 = molecular target: T12, TLK2 (Homo sapiens, UniProt Q86UE8); settings: read-out: %Inhibition by 10 μM SPA70
T12 construct: purchased DiscoverX (Ambit Biosciences) KINOMEscan
In short: as §1

TNK1 = molecular target: T13, TNK1 (Homo sapiens, UniProt Q13470); settings: read-out: %Inhibition by 10 μM SPA70
T13 construct: purchased DiscoverX (Ambit Biosciences) KINOMEscan
In short: as §1

CAMK2A = molecular target: T14, CAMK2A (Homo sapiens, UniProt Q9UQM7); settings: read-out: %Inhibition by 10 μM SPA70
T14 construct: purchased DiscoverX (Ambit Biosciences) KINOMEscan
In short: as §1

KIT = molecular target: T15, KIT (Homo sapiens, UniProt P10721)
T15 construct: purchased Ambit Biosciences, now part of DiscoveryX
T15 sequence (P10721 26-976): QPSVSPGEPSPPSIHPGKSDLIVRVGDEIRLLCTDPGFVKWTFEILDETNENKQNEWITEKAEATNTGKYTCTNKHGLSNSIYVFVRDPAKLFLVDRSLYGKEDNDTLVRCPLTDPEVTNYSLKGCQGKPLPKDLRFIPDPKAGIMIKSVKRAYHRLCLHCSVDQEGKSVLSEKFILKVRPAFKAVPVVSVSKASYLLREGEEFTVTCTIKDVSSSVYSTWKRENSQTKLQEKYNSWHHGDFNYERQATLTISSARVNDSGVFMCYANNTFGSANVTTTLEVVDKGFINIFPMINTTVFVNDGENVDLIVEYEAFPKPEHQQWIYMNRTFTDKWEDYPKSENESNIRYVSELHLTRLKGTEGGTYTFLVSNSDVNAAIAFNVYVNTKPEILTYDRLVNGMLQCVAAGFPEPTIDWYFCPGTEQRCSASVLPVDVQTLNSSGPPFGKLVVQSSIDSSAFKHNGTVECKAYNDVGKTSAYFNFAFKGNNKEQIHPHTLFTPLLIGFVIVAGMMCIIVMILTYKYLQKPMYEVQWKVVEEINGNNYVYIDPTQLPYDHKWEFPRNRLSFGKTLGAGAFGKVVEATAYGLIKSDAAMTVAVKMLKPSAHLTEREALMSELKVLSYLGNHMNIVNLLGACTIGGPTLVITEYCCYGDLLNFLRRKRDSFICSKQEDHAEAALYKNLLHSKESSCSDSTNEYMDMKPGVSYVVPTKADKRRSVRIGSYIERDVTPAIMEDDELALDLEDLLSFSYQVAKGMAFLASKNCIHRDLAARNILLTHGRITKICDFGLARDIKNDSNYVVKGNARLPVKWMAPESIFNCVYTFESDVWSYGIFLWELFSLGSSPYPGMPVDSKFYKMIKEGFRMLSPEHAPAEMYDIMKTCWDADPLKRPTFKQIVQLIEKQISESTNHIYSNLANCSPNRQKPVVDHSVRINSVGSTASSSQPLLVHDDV
In short: as §1

AURKA = molecular target: T16, AURKA (Homo sapiens, UniProt O14965); settings: read-out: %Inhibition by 10 μM SPA70
T16 construct: purchased DiscoverX (Ambit Biosciences) KINOMEscan
In short: as §1

ZAP70 = molecular target: T17, ZAP70 (Homo sapiens, UniProt P43403); settings: read-out: %Inhibition by 10 μM SPA70
T17 construct: purchased DiscoverX (Ambit Biosciences) KINOMEscan
In short: as §1

[1] = molecular target: T18, RSK4(Kin.Dom.2-C-terminal) (Homo sapiens, UniProt Q9UK32)
T18 construct: RSK4(Kin.Dom.2-C-terminal); purchased DiscoverX (Ambit Biosciences) KINOMEscan
In short: as §1

HCK = molecular target: T19, HCK (Homo sapiens, UniProt P08631); settings: read-out: %Inhibition by 10 μM SPA70
T19 construct: purchased DiscoverX (Ambit Biosciences) KINOMEscan
In short: as §1

GAK = molecular target: T20, GAK (Homo sapiens, UniProt O14976); settings: read-out: %Inhibition by 10 μM SPA70
T20 construct: purchased DiscoverX (Ambit Biosciences) KINOMEscan
In short: as §1

STK39 = molecular target: T21, STK39 (Homo sapiens, UniProt Q9UEW8); settings: read-out: %Inhibition by 10 μM SPA70
T21 construct: purchased DiscoverX (Ambit Biosciences) KINOMEscan
In short: as §1

ACVR1 = molecular target: T22, ACVR1 (Homo sapiens, UniProt Q04771); settings: read-out: %Inhibition by 10 μM SPA70
T22 construct: purchased DiscoverX (Ambit Biosciences) KINOMEscan
In short: as §1

ITK = molecular target: T23, ITK (Homo sapiens, UniProt Q08881)
T23 construct: purchased DiscoverX (Ambit Biosciences) KINOMEscan
In short: as §1

MYLK = molecular target: T24, MYLK (Homo sapiens, UniProt Q15746); settings: read-out: %Inhibition by 10 μM SPA70
T24 construct: purchased DiscoverX (Ambit Biosciences) KINOMEscan
T24 sequence (Q15746 whole entry): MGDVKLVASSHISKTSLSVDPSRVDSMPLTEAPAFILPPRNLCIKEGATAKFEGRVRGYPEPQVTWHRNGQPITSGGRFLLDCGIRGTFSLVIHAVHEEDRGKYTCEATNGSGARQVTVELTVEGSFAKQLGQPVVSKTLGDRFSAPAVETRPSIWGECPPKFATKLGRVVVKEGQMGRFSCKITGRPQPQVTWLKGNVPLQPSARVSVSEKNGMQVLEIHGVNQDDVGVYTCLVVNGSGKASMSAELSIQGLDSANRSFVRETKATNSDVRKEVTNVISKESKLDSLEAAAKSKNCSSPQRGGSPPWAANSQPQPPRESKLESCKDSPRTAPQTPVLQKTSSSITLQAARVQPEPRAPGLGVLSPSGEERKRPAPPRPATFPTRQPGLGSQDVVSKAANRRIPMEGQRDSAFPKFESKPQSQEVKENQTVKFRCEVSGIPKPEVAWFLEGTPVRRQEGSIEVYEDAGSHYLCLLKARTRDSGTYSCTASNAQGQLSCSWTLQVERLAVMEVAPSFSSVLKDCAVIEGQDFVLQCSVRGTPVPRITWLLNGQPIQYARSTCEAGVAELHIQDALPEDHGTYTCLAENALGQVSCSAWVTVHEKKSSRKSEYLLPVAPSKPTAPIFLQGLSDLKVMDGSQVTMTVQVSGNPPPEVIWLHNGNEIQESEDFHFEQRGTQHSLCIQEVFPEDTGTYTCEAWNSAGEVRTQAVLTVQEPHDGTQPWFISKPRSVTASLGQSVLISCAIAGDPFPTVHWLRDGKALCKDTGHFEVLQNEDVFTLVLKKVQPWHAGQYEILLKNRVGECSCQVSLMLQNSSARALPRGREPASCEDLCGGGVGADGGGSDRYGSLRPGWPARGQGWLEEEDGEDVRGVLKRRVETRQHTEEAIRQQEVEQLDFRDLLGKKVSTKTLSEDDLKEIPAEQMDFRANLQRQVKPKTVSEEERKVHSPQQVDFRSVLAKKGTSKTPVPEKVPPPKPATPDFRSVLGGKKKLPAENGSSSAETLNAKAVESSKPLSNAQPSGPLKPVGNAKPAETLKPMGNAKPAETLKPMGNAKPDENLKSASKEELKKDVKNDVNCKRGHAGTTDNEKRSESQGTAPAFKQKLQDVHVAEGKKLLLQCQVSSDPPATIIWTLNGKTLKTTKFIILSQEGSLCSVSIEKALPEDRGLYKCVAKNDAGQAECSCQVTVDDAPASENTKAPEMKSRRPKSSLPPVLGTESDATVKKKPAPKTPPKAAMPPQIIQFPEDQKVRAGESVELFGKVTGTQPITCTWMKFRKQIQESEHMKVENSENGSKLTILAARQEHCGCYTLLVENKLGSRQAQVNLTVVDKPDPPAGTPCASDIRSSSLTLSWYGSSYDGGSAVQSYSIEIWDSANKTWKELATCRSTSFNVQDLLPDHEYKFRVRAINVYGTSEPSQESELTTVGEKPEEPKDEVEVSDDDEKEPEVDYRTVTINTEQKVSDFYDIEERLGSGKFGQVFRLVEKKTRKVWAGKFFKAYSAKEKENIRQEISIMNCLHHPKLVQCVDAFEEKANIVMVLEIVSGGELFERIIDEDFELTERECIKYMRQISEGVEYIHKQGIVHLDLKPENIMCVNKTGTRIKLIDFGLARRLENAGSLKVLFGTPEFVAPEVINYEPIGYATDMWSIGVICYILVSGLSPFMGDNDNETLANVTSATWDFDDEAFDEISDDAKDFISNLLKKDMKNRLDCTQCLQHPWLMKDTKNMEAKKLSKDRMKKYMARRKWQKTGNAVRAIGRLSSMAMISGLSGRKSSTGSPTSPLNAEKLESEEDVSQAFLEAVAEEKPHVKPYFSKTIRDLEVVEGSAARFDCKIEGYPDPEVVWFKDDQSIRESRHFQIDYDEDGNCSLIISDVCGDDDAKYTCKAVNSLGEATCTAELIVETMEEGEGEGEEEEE
In short: as §1

RIPK1 = molecular target: T25, RIPK1 (Homo sapiens, UniProt Q13546); settings: read-out: %Inhibition by 10 μM SPA70
T25 construct: purchased DiscoverX (Ambit Biosciences) KINOMEscan
In short: as §1

[2] = molecular target: T26, RSK3(Kin.Dom.2-C-terminal) (Homo sapiens, UniProt Q15349); settings: read-out: %Inhibition by 10 μM SPA70
T26 construct: RSK3(Kin.Dom.2-C-terminal); purchased DiscoverX (Ambit Biosciences) KINOMEscan
T26 sequence (Q15349 389-733 limits assumed): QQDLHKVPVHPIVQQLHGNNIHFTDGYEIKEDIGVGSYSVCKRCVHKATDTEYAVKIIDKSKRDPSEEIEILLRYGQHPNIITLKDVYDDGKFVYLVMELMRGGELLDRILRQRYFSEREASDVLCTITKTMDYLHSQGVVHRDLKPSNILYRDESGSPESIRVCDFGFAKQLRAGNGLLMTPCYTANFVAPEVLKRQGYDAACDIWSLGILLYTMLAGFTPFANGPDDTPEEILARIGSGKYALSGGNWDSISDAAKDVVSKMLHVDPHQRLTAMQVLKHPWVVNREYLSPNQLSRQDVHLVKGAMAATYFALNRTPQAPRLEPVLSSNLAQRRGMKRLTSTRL
In short: as §1

SLK = molecular target: T27, SLK (Homo sapiens, UniProt Q9H2G2); settings: read-out: %Inhibition by 10 μM SPA70
T27 construct: purchased DiscoverX (Ambit Biosciences) KINOMEscan
In short: as §1

MAP3K2 = molecular target: T28, MAP3K2 (Homo sapiens, UniProt Q9Y2U5); settings: read-out: %Inhibition by 10 μM SPA70
T28 construct: purchased DiscoverX (Ambit Biosciences) KINOMEscan
In short: as §1

MRCKB = molecular target: T29, MRCKB (Homo sapiens, UniProt Q9Y5S2); settings: read-out: %Inhibition by 10 μM SPA70
T29 construct: purchased DiscoverX (Ambit Biosciences) KINOMEscan
In short: as §1

ADCK3 = molecular target: T30, ADCK3 (Homo sapiens, UniProt Q8NI60); settings: read-out: %Inhibition by 10 μM SPA70
T30 construct: purchased DiscoverX (Ambit Biosciences) KINOMEscan
In short: as §1

YANK3 = molecular target: T31, YANK3 (Homo sapiens, UniProt Q86UX6); settings: read-out: %Inhibition by 10 μM SPA70
T31 construct: purchased DiscoverX (Ambit Biosciences) KINOMEscan
T31 sequence (Q86UX6 whole entry): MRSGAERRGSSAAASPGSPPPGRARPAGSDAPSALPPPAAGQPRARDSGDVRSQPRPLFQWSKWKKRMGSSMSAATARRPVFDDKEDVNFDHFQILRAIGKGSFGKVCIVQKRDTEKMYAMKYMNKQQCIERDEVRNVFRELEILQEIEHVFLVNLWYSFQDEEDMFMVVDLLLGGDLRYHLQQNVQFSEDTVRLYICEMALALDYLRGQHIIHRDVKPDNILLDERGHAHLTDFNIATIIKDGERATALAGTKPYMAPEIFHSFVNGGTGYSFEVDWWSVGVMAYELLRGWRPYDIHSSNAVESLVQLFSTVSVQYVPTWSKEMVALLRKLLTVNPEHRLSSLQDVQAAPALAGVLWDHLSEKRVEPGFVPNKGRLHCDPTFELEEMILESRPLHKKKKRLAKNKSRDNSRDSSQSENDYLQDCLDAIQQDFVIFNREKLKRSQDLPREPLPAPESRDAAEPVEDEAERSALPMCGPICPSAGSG
In short: as §1

PRKCE = molecular target: T32, PRKCE (Homo sapiens, UniProt Q02156); settings: read-out: %Inhibition by 10 μM SPA70
T32 construct: purchased DiscoverX (Ambit Biosciences) KINOMEscan
In short: as §1

PIM3 = molecular target: T33, PIM3 (Homo sapiens, UniProt Q86V86); settings: read-out: %Inhibition by 10 μM SPA70
T33 construct: purchased DiscoverX (Ambit Biosciences) KINOMEscan
In short: as §1

NEK11 = molecular target: T34, NEK11 (Homo sapiens, UniProt Q8NG66); settings: read-out: %Inhibition by 10 μM SPA70
T34 construct: purchased DiscoverX (Ambit Biosciences) KINOMEscan
T34 sequence (Q8NG66 whole entry): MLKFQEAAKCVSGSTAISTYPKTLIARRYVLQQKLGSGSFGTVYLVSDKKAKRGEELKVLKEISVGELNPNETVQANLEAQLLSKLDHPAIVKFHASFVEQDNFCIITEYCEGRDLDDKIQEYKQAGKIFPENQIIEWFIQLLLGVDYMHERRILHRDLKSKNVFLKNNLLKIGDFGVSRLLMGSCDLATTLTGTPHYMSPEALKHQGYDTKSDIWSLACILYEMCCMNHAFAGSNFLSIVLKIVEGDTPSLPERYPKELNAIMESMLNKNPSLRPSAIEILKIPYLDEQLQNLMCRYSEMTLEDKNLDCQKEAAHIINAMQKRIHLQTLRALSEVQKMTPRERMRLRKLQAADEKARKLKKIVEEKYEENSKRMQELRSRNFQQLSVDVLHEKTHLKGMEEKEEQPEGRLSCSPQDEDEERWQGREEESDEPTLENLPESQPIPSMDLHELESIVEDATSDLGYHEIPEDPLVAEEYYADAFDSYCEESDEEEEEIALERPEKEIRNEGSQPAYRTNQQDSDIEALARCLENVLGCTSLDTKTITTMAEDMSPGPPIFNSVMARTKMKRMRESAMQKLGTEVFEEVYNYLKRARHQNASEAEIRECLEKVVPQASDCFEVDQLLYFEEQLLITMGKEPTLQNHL
In short: as §1

FGFR2 = molecular target: T35, FGFR2 (Homo sapiens, UniProt P21802); settings: read-out: %Inhibition by 10 μM SPA70
T35 construct: purchased DiscoverX (Ambit Biosciences) KINOMEscan
In short: as §1

IRAK3 = molecular target: T36, IRAK3 (Homo sapiens, UniProt Q9Y616); settings: read-out: %Inhibition by 10 μM SPA70
T36 construct: purchased DiscoverX (Ambit Biosciences) KINOMEscan
In short: as §1

BRK = molecular target: T37, BRK (Homo sapiens, UniProt Q13882); settings: read-out: %Inhibition by 10 μM SPA70
T37 construct: purchased DiscoverX (Ambit Biosciences) KINOMEscan
In short: as §1

GRK1 = molecular target: T38, GRK1 (Homo sapiens, UniProt Q15835); settings: read-out: %Inhibition by 10 μM SPA70
T38 construct: purchased DiscoverX (Ambit Biosciences) KINOMEscan
In short: as §1

JNK2 = molecular target: T39, JNK2 (Homo sapiens, UniProt P45984)
T39 construct: purchased DiscoverX (Ambit Biosciences) KINOMEscan
In short: as §1

BMPR2 = molecular target: T40, BMPR2 (Homo sapiens, UniProt Q13873)
T40 construct: purchased DiscoverX (Ambit Biosciences) KINOMEscan
In short: as §1

PIK3C2G = molecular target: T41, PIK3C2G (Homo sapiens, UniProt O75747); settings: read-out: %Inhibition by 10 μM SPA70
T41 construct: purchased DiscoverX (Ambit Biosciences) KINOMEscan
In short: as §1

With `COc1ccc(OC)c(-n2nnc(S(=O)(=O)c3ccc(C(C)(C)C)cc3)c2C)c1` [SPA70] the “%Inhibition by 10 μM SPA70” value (ULK1) was 5%, the inhibition at 10 µM (RIPK5) was 24% and the inhibition at 10 µM (EPHA7) was 0%. The inhibition at 10 µM (YES) was 2%, the inhibition at 10 µM (YANK1) was 0% and the inhibition at 10 µM (CSNK1A1L) was 0%. The inhibition at 10 µM (EPHA3) was 26%, the inhibition at 10 µM (ROCK1) was 3% and the inhibition at 10 µM (NDR2) was 0%. It also gave an inhibition at 10 µM (PYK2) of 2%, an inhibition at 10 µM (PAK4) of 0% and an inhibition at 10 µM (TLK2) of 0%. It also gave an inhibition at 10 µM (TNK1) of 0%, an inhibition at 10 µM (CAMK2A) of 0% and a Kd (KIT; 11-point 3-fold serial dilutions starting from 30 µM) of 2.5 µM. For the same compound, the inhibition at 10 µM (KIT; read-out: %Inhibition by 10 μM SPA70) was 83%, the inhibition at 10 µM (AURKA) was 0% and the inhibition at 10 µM (ZAP70) was 22%. The “%Inhibition by 10 μM SPA70” value [1] was 16%, the inhibition at 10 µM (HCK) was 9% and the inhibition at 10 µM (GAK) was 3%. For the same compound, the inhibition at 10 µM (STK39) was 7%, the inhibition at 10 µM (ACVR1) was 0% and the “%Inhibition by 10 μM SPA70” value (ITK) was 0%. For the same compound, the inhibition at 10 µM (MYLK) was 0%, the inhibition at 10 µM (RIPK1) was 0% and the inhibition at 10 µM [2] was 19%. It also gave an inhibition at 10 µM (SLK) of 9%, an inhibition at 10 µM (MAP3K2) of 15% and an inhibition at 10 µM (MRCKB) of 0%. It also gave an inhibition at 10 µM (ADCK3) of 0%, an inhibition at 10 µM (YANK3) of 0% and an inhibition at 10 µM (PRKCE) of 0%. The inhibition at 10 µM (PIM3) was 0%, the inhibition at 10 µM (NEK11) was 34% and the inhibition at 10 µM (FGFR2) was 0%. The inhibition at 10 µM (IRAK3) was 15%, the inhibition at 10 µM (BRK) was 0% and the inhibition at 10 µM (GRK1) was 0%. For the same compound, the “%Inhibition by 10 μM SPA70” value (JNK2) was 0%, the “%Inhibition by 10 μM SPA70” value (BMPR2) was 10% and the inhibition at 10 µM (PIK3C2G) was 0%.
